PMC5510229, “BCAT1 controls metabolic reprogramming in activated human macrophages and is associated with inflammatory diseases” (Nature Communications, 2017)
pIC50: −log10 of the molar value.

Experiments:
recombinant human BCAT1 = biological target: T1, recombinant human BCAT1 (Homo sapiens, UniProt P54687); assay: BCAT1 aminotransferase enzymatic assay (continuous fluorometric); format: biochemical; details: 100 ng recombinant protein
T1 construct: purchased Abcam
T1 sequence (P54687 1-386): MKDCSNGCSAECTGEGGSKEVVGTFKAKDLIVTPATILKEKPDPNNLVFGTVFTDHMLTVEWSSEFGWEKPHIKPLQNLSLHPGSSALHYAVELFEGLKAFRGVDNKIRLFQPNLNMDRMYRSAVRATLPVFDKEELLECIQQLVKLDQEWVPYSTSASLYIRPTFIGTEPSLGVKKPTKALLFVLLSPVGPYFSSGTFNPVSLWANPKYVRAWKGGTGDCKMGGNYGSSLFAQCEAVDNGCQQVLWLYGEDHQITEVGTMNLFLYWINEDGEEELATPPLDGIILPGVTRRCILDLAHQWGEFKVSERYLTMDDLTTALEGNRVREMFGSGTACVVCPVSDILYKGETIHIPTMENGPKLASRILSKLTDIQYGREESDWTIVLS
Text: To gain more insights into the role of BCAT enzymes in macrophages, we set out to investigate these in human monocyte-derived macrophages (hMDMs) by subjecting these cells to RNA-sequencing (Fig. 1a). […] To examine the role of BCAT1 in macrophage metabolism and inflammatory diseases, we identified a novel BCAT1 inhibitor, ERG240, using molecular modelling approaches based on the X-ray crystal structures of BCAT1 (ref. [22]). ERG240 is a water-soluble structural analogue of leucine (Fig. 1b). Its ability to suppress the BCAT1 aminotransferase activity was measured in a continuous fluorometric assay (ref. [23] and see Supplementary Methods). […]
Figure 1 BCAT1 expression and inhibition in human macrophages. […] (d) Relative expression of IRG1, HIF1A and IL1B measured by qRT-PCR in control, ERG240-treated (20 mM, 3 h), LPS treated (100 ng ml^−1, 3 h), and LPS+ERG240 treated (LPS, 100 ng ml^−1; ERG240, 20 mM for 3 h) hMDMs. ns, non-significant. […]
Finall y, th e libraries were size selected using AM Pure XP Beads (Beckman Coulter) purified and their quality was checked using Agilent 2100 Bioanalyzer. Samples were randomized to avoid batch effects and multiplexed libraries wer e run on a single lan e (6 samples/lane) of the HiSeq 2500 platform (Illumina) to generate 100bp paired-end reads. […]
respectivel y. RNA-seq reads were aligned to human (hg19) or mouse (mm10) reference genomes using tophat2. […]

[1] = Blood brain barrier crossing
Text: NCOMMS-16-23550_Point by Point Responses Papathanassiu et al.
6. It would be interesting to know why the half -life in animals is very low. Again, is the drug metabolized by the organism? (see also point 3).
Authors’ reply. The pharmacokinetic study that determined the half -life of the drug in mice […]
ERG240 is completely absorbed and not subject to first -pass metabolism. Since the drug is structurally a leucine analogue, it is likely to be uptaken by the ubiquitously expressed amino acid transporter LAT1. In that light, the low half -life of the drug is related to its complete and swift absorption by various sites rather to a phase I or II metabolic reaction. ERG240 is also […]
preferentially in the brain. […]
metabolism of the drug in human macrophages, please see the response to point 3, which […]
7. Leucine is degraded to acetyl -Coa and acetoacetate both fueling cellular acetyl -Coa pools. Does decreased activity of BCAT1 impact cellular acetyl -Coa and citrate levels? Itaconate synthesis is a sink for citrate and diverts carbon away from the TCA cycle. […]
have measured citrate levels in 4 donors following LPS and LPS + ERG240 treatment for 3 hours by GC-MS. […]
Itaconate levels measured by GC/MS were further confirmed in si-BCAT1 and si-Control MDMs from independent donors (n=4, left panel). […]

CC(=O)C(C)CCC(=O)O (stereo not drawn) [ERG240]
pIC50 (recombinant human BCAT1): 9.00 to 10.00
accumulation in the brain [1]: does not accumulate
crossing of the blood brain barrier [1]: capable of crossing the blood brain barrier
